Test results: US9724338B2, “Methods of using (+)-1,4-dihydro-7-[(3S,4S)-3-methoxy-4-(methylamino)-1-pyrrolidinyl]-4-OXO-1-(2-thiazolyl)-1,8-naphthyridine-3-carboxylic acid for treatment of antecedent hematologic disorders” (SUNESIS PHARMACEUTICALS, INC., priority 2007, dated 2017)

How the values were obtained:
[1] = test system: advanced or refractory acute leukemias; experiment: Clinical study: dose-escalating treatment of acute leukemia with SNS-595 (Example 4); format: in vivo, human
Source text: Minimum cycle length was 42 days for Arm A and 39 days for Arm B, respectively. Additional cycles were permitted if patients achieved stable disease or better. […] Pre- and post-dose bone marrow aspirates were obtained from a subset of patients to assess biomarkers.

[2] = test system: relapsed CMML (transformed to AML); experiment: Clinical study: treatment with SNS-595 of a patient with relapsed CMML (Example 3); format: in vivo, human; settings: 50 mg/m^2 twice a week; for Marrow blasts: slow IV push
Method: A patient with relapsed CMML (transformed to AML) was enrolled. The patient was diagnosed about 17 months prior to the study, was treated with 1 cycle of a Southwest Oncology Group (SWOG) regimen after diagnosis. They were given 4 cycles of azacitidine (Vidaza®) about 14 months prior to the study and 1 cycle of decitabine, about 6 months before the study.

[3] = Solubility of SNS-595 in compositions for injection or intravenous infusion (Example 1); format: physicochemical; settings: Acidic compositions (<pH 4)
Source text: The resulting composition is also suitable for lyophilization. The lyophilized form is then reconstituted with sterile water to the appropriate concentration prior to use.

[4] = test system: MDS that had transformed to refractory CMML (progressed to AML); experiment: Clinical study: treatment with SNS-595 of a patient with MDS transformed to refractory CMML (Example 2); format: in vivo, human; settings: 72 mg/m^2 once per week for three weeks; for Peripheral Blasts: slow IV push
Method: A patient with MDS that had transformed to refractory CMML was enrolled in this study. The patient was diagnosed about 26 months prior to the study and was given 8 cycles of azacitadine (Vidaza®) about 10 months prior to the study. They were then treated with mitoxantrone+VP16 for 1 cycle, about 4 months prior to the study. […] The patient had initial marrow blast count of 39%. The following observations were noted on days 15 and 35.

[5] = Arm A, weekly x3, dose escalation to 90 mg/m^2

CN[C@H]1CN(c2ccc3c(=O)c(C(=O)O)cn(-c4nccs4)c3n2)C[C@@H]1OC [SNS-595, (+)-1,4-dihydro-7-[(3S,4S)-3-methoxy-4-(methylamino)-1-pyrrolidinyl]-4-oxo-1-(2-thiazolyl)-1,8-naphthyridine-3-carboxylic acid]
Dose-limiting toxicity (DLT) ([1]; Arm A, 27 mg/m^2 weekly dose (also had progressive disease)): G4 myelosuppression
Complete Responses (CR) ([1]; Arm A, 50 mg/m^2 dose level): 1 patient
Dose-limiting toxicity (DLT) ([1]; Arm A, 50 mg/m^2 weekly dose): prolonged myelosuppression
Response of a patient with AML and splenomegaly ([1]; Arm A, 72 mg/m^2): clinical benefit with reduction in splenomegaly and blast counts
Dose-limiting toxicity (DLT) ([1]; Arm A, 72 mg/m^2 weekly dose): bowel obstruction
Clinical activity: reductions in marrow blasts to ≦5% ([1]; Arm A, doses at or above 50 mg/m^2): 5 patients
Drug-related G3 & 4 events: diarrhea ([1]; Arm A, weekly x3): 1 patient
Drug-related G3 & 4 events: stomatitis ([1]; Arm A, weekly x3): 3 patients
Non-dose-limiting toxicities (non-DLTs) [1, 5]: nausea/vomiting and diarrhea
Number of dose-limiting toxicities (DLTs) observed [1, 5]: Three
Clinical activity: reductions in marrow blasts to ≦5% ([1]; Arm B, 40 mg/m^2): 1 patient
Complete Responses (CR) ([1]; Arm B, 40 mg/m^2 level): 1 patient
Response of a patient with AML and splenomegaly ([1]; Arm B, 50 mg/m^2 dose level, patient had G3 mucositis): partial response
G3 mucositis ([1]; Arm B, twice weekly x2, 40 mg/m^2): two patients out of 11
Dose-limiting toxicity (DLT) of Grade (G) 3 mucositis ([1]; Arm B, twice weekly x2, 50 mg/m^2 dose level): 3 patients
Tolerability in patients with advanced leukemias ([1]; Arms A and B): well-tolerated
Clinical outcome of treatment ([2]; one patient): clinical benefit (i.e. hematological improvement) with reduction in blast counts
Absolute neutrophil count (ANC) ([2]; At the time of undergoing treatment with third cycle): 1600
Marrow blasts ([2]; Post Cycle 1, baseline 20% blasts): 8%
Circulating blasts ([2]; Post Cycle 2): 4%
Marrow blasts ([2]; Post Cycle 2): 1%
Circulating blasts ([2]; Post Cycle 3): 8%
Circulating blasts ([2]; Post Cycle 4): 12%
Solubility [3]: increased solubility
Clinical outcome of treatment ([4]; one patient): clinical benefit with reduction in splenomegaly and blast counts
Ultimate disease status ([4]; one patient): progressive disease
White blood cell (WBC) count, earlier value ('was') ([4]; Around Day 35, before rise with Necrotizing fasciitis (NF) infection): 7000
Absolute neutrophil count (ANC) ([4]; Around Day 35): 3139
Peripheral Blasts ([4]; Around Day 35, one patient): 33%
White blood cell (WBC) count ([4]; Around Day 35, patient had Necrotizing fasciitis (NF) infection): 16000
Absolute neutrophil count (ANC) ([4]; Day 15): 94
White blood cell (WBC) count ([4]; Day 15): 600
Peripheral Blasts ([4]; Day 15, one patient): No blasts
